In patent US9006185B2, “Use of cell-permeable peptide inhibitors of the JNK signal transduction pathway for the treatment of various diseases” (Xigen Inflammation Ltd., priority 2008, dated 2015):
Read-outs that look alike come from different tables or passages of the source. Square brackets hold non-standard residues; d marks the D form. Ends that are not written are not given here.

How the values were obtained:
[1] = test system: gerbil; details: transient global ischemia; cited from earlier work
[2] = test system: primary embryonic cultures and differentiated PC12 cells; details: after trophic withdrawal; cited from earlier work
[3] = test system: chick embryonic dorsal root ganglion, sympathetic, ciliary and motor neurons; details: cited from earlier work
[4] = test system: TC-3 cells; assay: Cellular import of fluorescein-labeled TAT and TAT-IB1(s) peptides; type: cell-based
Procedure: The ability of the L- and D-enantiomeric forms of TAT and TAT-IB1(s) peptides (“TAT-IB peptides”) to enter cells was evaluated. L-TAT, D-TAT, L-TAT-IB1(s), and D-TAT-IB1(s) peptides [SEQ ID NOs: 5, 6, 9 and 12, respectively] were labeled by N-terminal addition of a glycine residue conjugated to fluorescein. Labeled peptides (1 μM) were added to TC-3 cell cultures, which were maintained as described in Example 3. At predetermined times cells were washed with PBS and fixed for five minutes in ice-cold methanol-acetone (1:1) before being examined under a fluorescence microscope. Fluorescein-labeled BSA (1 μM, 12 moles/mole BSA) was used as a control.
Little to no signal was present at 48 hours.
Fluorescent signals from these all-D retro-inverso peptides were still very strong 1 week later, and the signal was only slightly diminished at 2 weeks post treatment.

[5] = test system: JNK; details: JBDs; cited from earlier work
[6] = test system: TC-3 cells; assay: IL-1 induced pancreatic beta-cell death, peptide treatment; type: cell-based; details: one single addition 1 μM, two days of incubation with IL-1
Procedure: Inhibition of IL-1 induced pancreatic beta-cell death by the D-TAT-IB1(s) peptide was analyzed. TC-3 cells were incubated as described above for 30 minutes with one single addition of the indicated peptides (1, μM), then IL-1 (10 ng/ml) was added.
Apoptotic cells were then counted after two days of incubation with IL-1 by use of Propidium Iodide and Hoechst 33342 nuclear staining. A minimum of 1,000 cells were counted for each experiment. Standard Error of the Means (SEM) are indicated, n=5.
Long term inhibition of IL-1P induced cell-death by the D-TAT-IB1 peptide was also analyzed. TC-3 cells were incubated as above for 30 minutes with one single addition of the indicated peptides (1 μM), then IL-1 (10 ng/ml) was added, followed by addition of the cytokine every two days. Apoptotic cells were then counted after 15 days of incubation with IL-1 by use of propidium iodide and Hoechst 33342 nuclear staining. […] A minimum of 1.000 cells were counted for each experiment.

[7] = fluorescein labeled, 1 μM, TC-3 cells

N#CC(c1ccnc(NCCc2cccnc2)n1)c1nc2ccccc2s1 (centres unmarked) [AS601245]
delayed loss of hippocampal CA1 neurons [1]: significant protection against the delayed loss of hippocampal CA1 neurons

CCSCc1ccc2c(c1)c1c3c(c4c5cc(CSCC)ccc5n5c4c1n2[C@H]1C[C@](O)(C(=O)OC)[C@]5(C)O1)CNC3=O [CEP-1347]
neuronal survival [2]: promotes neuronal survival at dosages that inhibit activation of the c-Jun amino-terminal kinases | long term survival of cultured neurons [3]: promote long term-survival

Fluorescein-labeled BSA: fluorescein labeled bovine serum albumin, 12 moles fluorescein/mole BSA, control [reference compound]
entry into cells (fluorescence microscopy) [4]: did not enter the cells

GRKKRRQRRR (Description of sequence Peptide L-TAT (see Table 1))
entry into cells (fluorescence microscopy) [4, 7]: efficiently and rapidly (less than five minutes) entered cells

GRKKRRQRRRPPRPKRPTTLNLFPQVPRSQD [L-TAT-IB1(s)]
entry into cells (fluorescence microscopy) [4, 7]: efficiently and rapidly (less than five minutes) entered cells

IPSPSVEEPHKHRPTTLRLTTLGAQDS (Description of sequence Peptide IB2-long (see Table 1))
efficiency in binding JNK relative to c-Jun or ATF2 [5]: approximately 100 fold

PGTGCGDTYRPKRPTTLNLFPQVPRSQDT (Description of sequence peptide IB1-long (see Table 1))
efficiency in binding JNK relative to c-Jun or ATF2 [5]: approximately 100 fold

RRRQRRKKRG (D-amino acids; Description of sequence Peptide D-TAT (see Table 1))
entry into cells (fluorescence microscopy) [4]: efficiently and rapidly (less than five minutes) entered cells | stability inside the cells [4]: extremely stable inside the cells

TDQSRPVQPFLNLTTPRKPRYTDPPRRRQRRKKRG (H-[dT][dD][dQ][dS][dR][dP][dV][dQ][dP][dF][dL][dN][dL][dT][dT][dP][dR][dK][dP][dR][dY][dT][dD][dP][dP][dR][dR][dR][dQ][dR][dR][dK][dK][dR]G-OH) [D-TAT-IB1]
IL-1 induced apoptosis [6]: decreased IL-1 induced apoptosis to a similar extent as L-TAT-IB peptides
